Measurements taken from patent publication US12180178B2, “Heteroaryl azole compound and pest control agent” (NIPPON SODA CO., LTD., priority 2018, dated 2024).
Like-named read-outs stand apart in the source and are kept apart here.

Tests used:
Assay type in all cases: in vivo
Mythimna separata = test: Test of Efficacy on Mythimna separata (test feed); details: 1 μl of emulsion (I) (5% active ingredient) in 0.8 g artificial feed; second instar larvae; 25° C.; fifth day
Experimental: 5 parts of the heteroaryl azole compound of the present invention, 93.6 parts of dimethylformamide, and 1.4 parts of polyoxyethylene alkyl aryl ether were mixed and dissolved to prepare emulsion (I) containing 5% of the active ingredient. For a control, 98.5 parts of dimethylformamide and 1.5 parts of polyoxyethylene alkyl aryl ether were mixed and dissolved to prepare emulsion (II). An insecticidal rate was calculated according to the following expression: Insecticidal rate (%)=(The number of dead insects/The number of tested insects)×100 0.8 g of commercially available artificial feed (Insecta LFS, manufactured by Nosan Corp.) and 1 μl of the emulsion (I) were well mixed to obtain test feed. A plastic test container (capacity: 1.4 ml) was packed with 0.2 g of the test feed per treatment plot. Then, two second instar larvae of Mythimna separata were inoculated to each treatment plot. A plastic lid was put on the test container so as to prevent escape of the second instar larvae of Mythimna separata. The container was placed in a thermostat chamber of 25° C. On the fifth day, the insecticidal rate and the food intake were examined. The test was conducted in duplicate. The insecticidal rate and the food intake of a control plot were examined in the same way as in Test Example 1 except that the emulsion (I) was changed to the emulsion (II).

Aphis craccivora = test: Test of Efficacy on Aphis craccivora (spray on black-eyed peas); details: 96 h, read-out: insecticidal rate
Experimental: 5 parts of the heteroaryl azole compound of the present invention, 93.6 parts of dimethylformamide, and 1.4 parts of polyoxyethylene alkyl aryl ether were mixed and dissolved to prepare emulsion (I) containing 5% of the active ingredient.
An insecticidal rate was calculated according to the following expression: Insecticidal rate (%)=(The number of dead insects/The number of tested insects)×100
Seedlings of black-eyed peas were raised in 10-cm pots. Aphis craccivora nymphs were inoculated onto primary leaves. The emulsion (I) was diluted with water such that the concentration of the compound of the present invention was 125 ppm. The dilution was sprayed to the black-eyed peas parasitized by the Aphis craccivora nymphs. The black-eyed peas were placed in a thermostat chamber having a temperature of 25° C. and a humidity of 60%. Life and death of Aphis craccivora were determined after 4 days from the spraying, and the insecticidal rate was calculated. The test was conducted in duplicate.

Plutella xylostella = test: Test of Efficacy on Plutella xylostella (cabbage leaf dip); details: foliar, 72 h, cabbage leaves dipped 30 seconds, second instar larvae, after 3 days, read-out: insecticidal rate
Experimental: 5 parts of the heteroaryl azole compound of the present invention, 93.6 parts of dimethylformamide, and 1.4 parts of polyoxyethylene alkyl aryl ether were mixed and dissolved to prepare emulsion (I) containing 5% of the active ingredient. An insecticidal rate was calculated according to the following expression: Insecticidal rate (%)=(The number of dead insects/The number of tested insects)×100 The emulsion (I) was diluted with water such that the concentration of the compound of the present invention was 125 ppm. Cabbage leaves were dipped in the dilution for 30 seconds. The resulting cabbage leaves were placed in a petri dish. Five second instar larvae of Plutella xylostella were released thereto. The petri dish was placed in a thermostat chamber having a temperature of 25° C. and a humidity of 60%. Life and death were determined after 3 days from the release of the insects, and the insecticidal rate was calculated. The test was conducted in duplicate.

[1] = 125 ppm, sprayed to black-eyed peas, nymphs, after 4 days

Structure (SMILES)	insecticidal rate or food intake as compared with the control plot (Mythimna separata)	pest or weed control at 125 ppm (Aphis craccivora; [1])	pest or weed control at 125 ppm (Aphis craccivora)	pest or weed control at 125 ppm (Plutella xylostella)
CCS(=O)(=O)c1cc(C(F)(F)F)cnc1-c1ncn(/C=C(\F)C(F)(F)C(F)(F)F)c1C [a-4]	insecticidal rate of 100% for Mythimna separata or a food intake of 10% or less as compared with the control plot	–	–	–
CCS(=O)(=O)c1cc(C(F)(F)F)cnc1-c1ncn(CC(F)(F)C(F)(F)C(F)(F)F)c1C [a-5]	insecticidal rate of 100% for Mythimna separata or a food intake of 10% or less as compared with the control plot	–	–	–
CCS(=O)(=O)c1cc(C2CC2)cnc1-c1ncn(/C=C(\F)C(F)(F)F)c1C [a-14]	insecticidal rate of 100% for Mythimna separata or a food intake of 10% or less as compared with the control plot	–	–	–
CCS(=O)(=O)c1cc(-c2ncccn2)cnc1-c1ncn(CC(F)(F)C(F)(F)C(F)(F)C(F)F)c1C [a-15]	insecticidal rate of 100% for Mythimna separata or a food intake of 10% or less as compared with the control plot	–	–	–
CCS(=O)(=O)c1cc(-c2cc(F)cc(F)c2)cnc1-c1ncn(/C=C(\F)C(F)(F)C(F)(F)F)n1 [b-3]	insecticidal rate of 100% for Mythimna separata or a food intake of 10% or less as compared with the control plot	–	–	–
CCS(=O)(=O)c1cc(C2CC2)cnc1-c1ncn(/C=C(\F)C(F)(F)C(F)(F)F)n1 [b-10]	insecticidal rate of 100% for Mythimna separata or a food intake of 10% or less as compared with the control plot	–	–	–
CCS(=O)(=O)c1cc(-c2ncccn2)cnc1-c1ncn(/C=C(\F)C(F)(F)C(F)(F)F)n1 [b-12]	insecticidal rate of 100% for Mythimna separata or a food intake of 10% or less as compared with the control plot	–	–	–
CCS(=O)(=O)c1cc(Br)cnc1-c1ncn(/C=C(\F)C(F)(F)C(F)(F)C(F)F)n1 [b-20]	insecticidal rate of 100% for Mythimna separata or a food intake of 10% or less as compared with the control plot	–	–	–
CCS(=O)(=O)c1cc(C2(C)CC2)cnc1-c1ncn(/C=C(\F)C(F)(F)C(F)(F)C(F)(F)F)n1 [b-22]	insecticidal rate of 100% for Mythimna separata or a food intake of 10% or less as compared with the control plot	–	–	–
CCS(=O)(=O)c1cc(-c2ccccn2)cnc1-c1ncn(CC(F)(F)C(F)(F)F)c1C [c-1, 5′-(ethylsulfonyl)-6′-(5-methyl-1-(2,2,3,3,3-pentafluoropropyl)-1H-imidazol-4-yl)-2,3′-bipyridine]	insecticidal rate of 100% for Mythimna separata or a food intake of 10% or less as compared with the control plot	≥ 80%	–	–
CCS(=O)(=O)c1cc(-c2ncccn2)cnc1-c1ncn(CC(F)(F)C(F)(F)F)c1C [c-2]	insecticidal rate of 100% for Mythimna separata or a food intake of 10% or less as compared with the control plot	≥ 80%	–	–
CCS(=O)(=O)c1cc(C2CC2)cnc1-c1ncn(CC(F)(F)C(F)(F)F)c1C [c-3]	–	≥ 80%	–	–
CCS(=O)(=O)c1cc(Br)cnc1-c1ncn(CC(F)(F)C(F)(F)F)c1C [c-4]	–	≥ 80%	–	–
CCS(=O)(=O)c1cc(C2CC2)cnc1-c1ncn(CC(F)(F)C(F)(F)C(F)(F)F)c1C [c-6]	insecticidal rate of 100% for Mythimna separata or a food intake of 10% or less as compared with the control plot	≥ 80%	–	–
CCS(=O)(=O)c1cc(Br)cnc1-c1ncn(CC(F)(F)C(F)(F)C(F)(F)F)c1C [c-7]	–	–	≥ 80%	–
CCS(=O)(=O)c1ccc(-n2cncn2)nc1-c1ncn(-c2ccc(C(F)(F)F)cn2)n1 [d-3]	insecticidal rate of 100% for Mythimna separata or a food intake of 10% or less as compared with the control plot	≥ 80%	–	–
CCS(=O)(=O)c1cc(C2CC2)cnc1-c1ncn(-c2ccc(C(F)(F)F)cn2)n1 [d-4, 5-cyclopropyl-3-(ethylsulfonyl)-2-(1-(5-(trifluoromethyl)pyridin-2-yl)-1H-1,2,4-triazol-3-yl)pyridine]	insecticidal rate of 100% for Mythimna separata or a food intake of 10% or less as compared with the control plot	≥ 80%	–	≥ 80%
CCS(=O)(=O)c1cc(-c2ncccn2)cnc1-c1ncn(-c2ccc(C(F)(F)F)cn2)n1 [d-5]	insecticidal rate of 100% for Mythimna separata or a food intake of 10% or less as compared with the control plot	–	–	≥ 80%
CCS(=O)(=O)c1cc(C2CC2)cnc1-c1ncn(-c2ccc(SC(F)(F)F)cc2)n1 [d-9]	insecticidal rate of 100% for Mythimna separata or a food intake of 10% or less as compared with the control plot	–	–	–
CCS(=O)(=O)c1ccc(Cl)nc1-c1ncn(-c2ccc(OC(F)(F)F)cc2)n1 [d-10]	insecticidal rate of 100% for Mythimna separata or a food intake of 10% or less as compared with the control plot	≥ 80%	–	–
CCS(=O)(=O)c1ccc(-n2cncn2)nc1-c1ncn(-c2ccc(OC(F)(F)F)cc2)n1 [d-11]	insecticidal rate of 100% for Mythimna separata or a food intake of 10% or less as compared with the control plot	≥ 80%	–	–
C=C(C)c1cnc(-c2ncn(-c3ccc(OC(F)(F)F)cc3)n2)c(S(=O)(=O)CC)c1 [d-13]	insecticidal rate of 100% for Mythimna separata or a food intake of 10% or less as compared with the control plot	–	–	–
CCS(=O)(=O)c1cc(C2(C)CC2)cnc1-c1ncn(-c2ccc(OC(F)(F)F)cc2)n1 [d-14]	insecticidal rate of 100% for Mythimna separata or a food intake of 10% or less as compared with the control plot	≥ 80%	–	–
CCS(=O)(=O)c1cc(C2CC2)cnc1-c1ncn(-c2ccc(OC(F)(F)C(F)F)cc2)n1 [d-15]	insecticidal rate of 100% for Mythimna separata or a food intake of 10% or less as compared with the control plot	–	–	≥ 80%
CCS(=O)(=O)c1cc(-c2ccccn2)cnc1-c1ncn(-c2ccc(OC(F)(F)C(F)F)cc2)n1 [d-16]	insecticidal rate of 100% for Mythimna separata or a food intake of 10% or less as compared with the control plot	≥ 80%	–	≥ 80%
CCS(=O)(=O)c1cnc(-c2ncccn2)nc1-c1ncn(-c2ccc(C(F)(F)C(F)(F)F)cc2)n1 [d-18]	–	≥ 80%	–	–
CCS(=O)(=O)c1ccc(S(=O)(=O)CC)c(-c2cn(-c3ccc(OC(F)(F)F)cc3)cn2)n1 [d-21]	–	≥ 80%	–	–
CCS(=O)(=O)c1cc(-c2ccccn2)cnc1-c1ncn(-c2ccc(OC(F)(F)F)cc2)c1Br [d-23]	–	–	–	≥ 80%
CCS(=O)(=O)c1ccc(-n2cncn2)nc1-c1cn(-c2ccc(OC(F)(F)F)cc2)cn1 [d-24]	insecticidal rate of 100% for Mythimna separata or a food intake of 10% or less as compared with the control plot	≥ 80%	–	≥ 80%
